From US12540118B2, “Dendrene amide compound, bactericide and use thereof” (Jiangsu Flag Chemical Industry Co., Ltd., priority 2020, dated 2026) come the findings set out here.

The target in the first test is T1, succinate dehydrogenase (Sus scrofa, UniProt A5GZW8+D0VWV4+Q007T0).
T1 construct: isolated from porcine hearts; from tissue; host or cells: porcine heart
T1 sequence (Q0QF01 43-664 partner): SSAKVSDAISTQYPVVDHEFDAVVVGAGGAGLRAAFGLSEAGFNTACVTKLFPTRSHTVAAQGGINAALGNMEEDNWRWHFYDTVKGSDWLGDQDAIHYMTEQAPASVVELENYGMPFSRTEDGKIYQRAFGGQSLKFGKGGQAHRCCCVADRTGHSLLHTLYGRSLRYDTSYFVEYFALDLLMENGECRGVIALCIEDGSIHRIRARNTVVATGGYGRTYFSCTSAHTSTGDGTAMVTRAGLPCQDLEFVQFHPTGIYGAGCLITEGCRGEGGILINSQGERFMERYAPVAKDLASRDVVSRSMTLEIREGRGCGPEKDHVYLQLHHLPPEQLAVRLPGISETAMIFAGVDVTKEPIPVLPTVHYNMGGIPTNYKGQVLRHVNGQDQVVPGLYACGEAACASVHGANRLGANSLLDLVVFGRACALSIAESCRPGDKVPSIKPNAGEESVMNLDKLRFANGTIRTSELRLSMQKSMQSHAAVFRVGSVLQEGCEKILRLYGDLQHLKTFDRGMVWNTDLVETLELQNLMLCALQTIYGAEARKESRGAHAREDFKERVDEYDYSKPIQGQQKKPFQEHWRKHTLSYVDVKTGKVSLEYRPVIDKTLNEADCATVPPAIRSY
T1 sequence (Q007T0 29-280): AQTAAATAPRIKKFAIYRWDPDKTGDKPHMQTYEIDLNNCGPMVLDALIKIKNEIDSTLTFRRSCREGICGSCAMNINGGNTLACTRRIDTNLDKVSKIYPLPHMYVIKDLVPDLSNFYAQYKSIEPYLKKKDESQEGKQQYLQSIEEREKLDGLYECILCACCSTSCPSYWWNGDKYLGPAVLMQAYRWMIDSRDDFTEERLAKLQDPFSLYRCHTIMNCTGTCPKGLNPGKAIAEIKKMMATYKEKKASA
T1 sequence (D0VWV4 30-169): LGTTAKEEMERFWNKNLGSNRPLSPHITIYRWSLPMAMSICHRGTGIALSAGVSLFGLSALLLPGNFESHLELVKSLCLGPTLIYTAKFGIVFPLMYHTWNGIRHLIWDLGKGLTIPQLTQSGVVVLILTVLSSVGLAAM
T1 sequence (A5GZW8 57-159 limits assumed): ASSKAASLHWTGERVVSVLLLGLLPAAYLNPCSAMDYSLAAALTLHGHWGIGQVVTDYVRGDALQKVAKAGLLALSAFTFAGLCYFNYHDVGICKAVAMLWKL
As to the kind of experiment: Enzyme activity assay, succinate dehydrogenase (DCIP reduction). As to conditions: read-out: Inhibitors (10 μM, SQR). Format: biochemical, porcine. As to the method:
The inhibitory activities of control agents and target compounds on succinate dehydrogenase are determined.
The enzyme used in this test example is succinate dehydrogenase, which is isolated from porcine hearts.
The test method comprises the following steps: The total volume of the system is 1.8 ml, and the system contained 100 mM Na2HPO4—NaH2PO4 buffer (pH=7.4), 0.3 mM EDTA, 20 mM sodium succinate, 53 μM DCIP (2,6-dichloroindophenol sodium), and 2 nM succinate dehydrogenase. Thermostatic waterbath at 23° C. and magnetic stirring at 600 rpm. The decrease in the light absorption of the substrate DCIP is monitored at a wavelength of 600 nm and experimental points in a linear range are collected. Control substrate consumption not more than 5% of the experimental points. The molar extinction coefficient of DCIP is 21 mM^−1 cm^−1. And calculating the reduction yield of the DCIP in the reaction time, fitting a linear slope, and deducting the baseline slope to obtain the initial reaction speed.
Turning to `Cc1cccc(C(CN(C(=O)c2c(C(F)F)nn(C)c2F)C2CC2)=C(Cl)Cl)c1` [Compound 139], the inhibition at 10 µM is > 90%.

As for `CC(C(=C(Cl)Cl)c1cccc(C(F)(F)F)c1Cl)N(C(=O)c1c(C(F)F)nn(C)c1F)C1CC1` (stereo not shown) [Compound 210], the inhibition at 10 µM was > 90%.

Consider `C=C(CN(C(=O)c1c(C(F)F)nn(C)c1F)C1CC1)c1c(F)cccc1F` [Compound 25], for which the inhibition at 10 µM is > 90%.

Consider `C=C(c1ccccc1C)C(C)N(C(=O)c1c(C(F)F)nn(C)c1F)C1CC1` (stereo not shown) [Compound 87], for which the inhibition at 10 µM is > 90%.

Take `CC(C(=C(Cl)Cl)c1cccc(F)c1)N(C(=O)c1c(C(F)F)nn(C)c1F)C1CC1` (stereo not shown) [Compound 177]: the inhibition at 10 µM is > 90%.

Regarding `Cc1ccc(C(CN(C(=O)c2c(C(F)F)nn(C)c2F)C2CC2)=C(Cl)Cl)cc1C` [Compound 151], the inhibition at 10 µM is > 90%.

Turning to `Cc1ccc(C(C)C)c(C(CN(C(=O)c2c(C(F)F)nn(C)c2F)C2CC2)=C(Cl)Cl)c1` [Compound 145], the inhibition at 10 µM is > 90%.

Regarding `Cn1nc(C(F)F)c(C(=O)N(CC(=C(Cl)Cl)c2c(Br)cc(Br)cc2Br)C2CC2)c1F` [Compound 137], the inhibition at 10 µM was > 90%.

With `Cn1nc(C(F)F)c(C(=O)N(CC(=C(Cl)Cl)c2cccc(Br)c2)C2CC2)c1F` [Compound 133], the inhibition at 10 µM was > 90%.

With `C=C(CN(C(=O)c1c(C(F)F)nn(C)c1F)C1CC1)c1cccc(S(C)(=O)=O)c1` [Compound 49], the inhibition at 10 µM is > 90%.

Consider `C=C(c1cc(Cl)ccc1F)C(C)N(C(=O)c1c(C(F)F)nn(C)c1F)C1CC1` (stereo not shown) [Compound 99], for which the inhibition at 10 µM is > 90%.

On to `CC(C(=C(Cl)Cl)c1ccc(Br)cc1)N(C(=O)c1c(C(F)F)nn(C)c1F)C1CC1` (stereo not shown) [Compound 184], for which the inhibition at 10 µM is > 90%.

`CC(C(=C(Cl)Cl)c1c(Cl)cc(Cl)cc1Cl)N(C(=O)c1c(C(F)F)nn(C)c1F)C1CC1` (stereo not shown) [Compound 175]: the inhibition at 10 µM was > 90%.

Regarding `C=C(CN(C(=O)c1c(C(F)F)nn(C)c1F)C1CC1)c1cc(C(C)C)ccc1C` [Compound 37], the inhibition at 10 µM is > 90%.

On to `C=C(CN(C(=O)c1c(C(F)F)nn(C)c1F)C1CC1)c1ccc(Cl)cc1` [Compound 17], for which the inhibition at 10 µM was > 90%.

In another test the test system is Erysiphe graminis. As to the kind of experiment: Erysiphe graminis potting method. The test is classed as in vivo. As to conditions: 6.25 mg/L. As to the method: The fungicidal activity of the control agents and target compounds are determined. The test and investigation method refers to SOP-SC-1116 Erysiphe graminis potting method in disinfectant rolls written by KANGZHUO and GUBAOGEN in “Standard operation specification for testing biological activity of pesticides”.
Consider `CNC(=O)/C(=N/OC)c1ccccc1CO/N=C(C)/C=C/c1c(Cl)cccc1Cl` [Fenaminstrobin, reference compound], for which the “Erysiphe graminis control rating” value was “B (70% ≤ B < 80%)”.

Staying with this test, now noted: 25 mg/L.
Consider `CNC(=O)/C(=N/OC)c1ccccc1CO/N=C(C)/C=C/c1c(Cl)cccc1Cl` [Fenaminstrobin, reference compound], for which the “Erysiphe graminis control rating” value was “A (80% ≤ A ≤ 100%)”.

The test is the same for the next values; noted with them: 100 mg/L.
With `CNC(=O)/C(=N/OC)c1ccccc1CO/N=C(C)/C=C/c1c(Cl)cccc1Cl` [Fenaminstrobin, reference compound], the “Erysiphe graminis control rating” value is “A (80% ≤ A ≤ 100%)”.

The same test, now with this note: Blumeria graminis; 6.25 mg/L; read-out: Erysiphe graminis control rating.
With `C=C(CN(C(=O)c1c(C(F)F)nn(C)c1F)C1CC1)c1cc(C(C)C)ccc1C` [Compound 37], the pest or weed control at 6.25 µg/mL is 70 to 80%.

For the compound `OC(Cc1ccccc1Cl)(Cn1nc[nH]c1=S)C1(Cl)CC1` (stereo not shown) [Prothioconazole, reference compound], the pest or weed control at 6.25 µg/mL fell in the range of 70 to 80%.

The same test, now with this note: Blumeria graminis; 25 mg/L; read-out: Erysiphe graminis control rating.
Turning to `C=C(CN(C(=O)c1c(C(F)F)nn(C)c1F)C1CC1)c1cc(C(C)C)ccc1C` [Compound 37], the pest or weed control at 25 µg/mL lay within 80 to 100%.

In the case of `OC(Cc1ccccc1Cl)(Cn1nc[nH]c1=S)C1(Cl)CC1` (stereo not shown) [Prothioconazole, reference compound], the pest or weed control at 25 µg/mL lay in the range of 80 to 100%.

The test is the same for the next values; noted with them: Blumeria graminis; 100 mg/L; read-out: Erysiphe graminis control rating.
In the case of `Cc1cccc(C(CN(C(=O)c2c(C(F)F)nn(C)c2F)C2CC2)=C(Cl)Cl)c1` [Compound 139], the pest or weed control at 100 µg/mL lay in the range of 80 to 100%.

Consider `CC(C(=C(Cl)Cl)c1cccc(C(F)(F)F)c1Cl)N(C(=O)c1c(C(F)F)nn(C)c1F)C1CC1` (stereo not shown) [Compound 210], for which the pest or weed control at 100 µg/mL is 80 to 100%.

Turning to `C=C(CN(C(=O)c1c(C(F)F)nn(C)c1F)C1CC1)c1c(F)cccc1F` [Compound 25], the pest or weed control at 100 µg/mL fell in the range of 80 to 100%.

As for `C=C(c1ccccc1C)C(C)N(C(=O)c1c(C(F)F)nn(C)c1F)C1CC1` (stereo not shown) [Compound 87], the pest or weed control at 100 µg/mL lay in the range of 80 to 100%.

`CC(C(=C(Cl)Cl)c1cccc(F)c1)N(C(=O)c1c(C(F)F)nn(C)c1F)C1CC1` (stereo not shown) [Compound 177]: the pest or weed control at 100 µg/mL was in the range of 80 to 100%.

On to `Cc1ccc(C(CN(C(=O)c2c(C(F)F)nn(C)c2F)C2CC2)=C(Cl)Cl)cc1C` [Compound 151], for which the pest or weed control at 100 µg/mL was 80 to 100%.

Take `Cc1ccc(C(C)C)c(C(CN(C(=O)c2c(C(F)F)nn(C)c2F)C2CC2)=C(Cl)Cl)c1` [Compound 145]: the pest or weed control at 100 µg/mL fell in the range of 80 to 100%.

`Cn1nc(C(F)F)c(C(=O)N(CC(=C(Cl)Cl)c2c(Br)cc(Br)cc2Br)C2CC2)c1F` [Compound 137]: the pest or weed control at 100 µg/mL was in the range of 80 to 100%.

Consider `Cn1nc(C(F)F)c(C(=O)N(CC(=C(Cl)Cl)c2cccc(Br)c2)C2CC2)c1F` [Compound 133], for which the pest or weed control at 100 µg/mL is 80 to 100%.

Turning to `C=C(CN(C(=O)c1c(C(F)F)nn(C)c1F)C1CC1)c1cccc(S(C)(=O)=O)c1` [Compound 49], the pest or weed control at 100 µg/mL is 80 to 100%.

Regarding `C=C(c1cc(Cl)ccc1F)C(C)N(C(=O)c1c(C(F)F)nn(C)c1F)C1CC1` (stereo not shown) [Compound 99], the pest or weed control at 100 µg/mL is 80 to 100%.

As to `CC(C(=C(Cl)Cl)c1ccc(Br)cc1)N(C(=O)c1c(C(F)F)nn(C)c1F)C1CC1` (stereo not shown) [Compound 184], the pest or weed control at 100 µg/mL was 80 to 100%.

`CC(C(=C(Cl)Cl)c1c(Cl)cc(Cl)cc1Cl)N(C(=O)c1c(C(F)F)nn(C)c1F)C1CC1` (stereo not shown) [Compound 175]: the pest or weed control at 100 µg/mL was 80 to 100%.

For the compound `C=C(CN(C(=O)c1c(C(F)F)nn(C)c1F)C1CC1)c1cc(C(C)C)ccc1C` [Compound 37], the pest or weed control at 100 µg/mL was in the range of 80 to 100%.

Consider `C=C(CN(C(=O)c1c(C(F)F)nn(C)c1F)C1CC1)c1ccc(Cl)cc1` [Compound 17], for which the pest or weed control at 100 µg/mL fell in the range of 80 to 100%.

`OC(Cc1ccccc1Cl)(Cn1nc[nH]c1=S)C1(Cl)CC1` (stereo not shown) [Prothioconazole, reference compound]: the pest or weed control at 100 µg/mL was in the range of 80 to 100%.

The next test has as its system Sphaerotheca fuliginea. As to the kind of experiment: Sphaerotheca fuliginea potting method. As to conditions: 100 mg/L. The test is classed as in vivo. As to the method: The fungicidal activity of the control agents and target compounds are determined. The test and investigation method refers to SOP-SC-1101 sphaerotheca fuliginea potting method in disinfectant rolls written by KANGZHUO and GUBAOGEN in “Standard operation specification for testing biological activity of pesticides”.
Regarding `CNC(=O)/C(=N/OC)c1ccccc1CO/N=C(C)/C=C/c1c(Cl)cccc1Cl` [Fenaminstrobin, reference compound], the “Sphaerotheca fuliginea control rating” value is listed as “B (70% ≤ B < 80%)”.

The same test, now with this note: Podosphaera fuliginea; 100 mg/L; read-out: Sphaerotheca fuliginea control rating.
Regarding `Cc1cccc(C(CN(C(=O)c2c(C(F)F)nn(C)c2F)C2CC2)=C(Cl)Cl)c1` [Compound 139], the pest or weed control at 100 µg/mL is 80 to 100%.

As for `CC(C(=C(Cl)Cl)c1cccc(C(F)(F)F)c1Cl)N(C(=O)c1c(C(F)F)nn(C)c1F)C1CC1` (stereo not shown) [Compound 210], the pest or weed control at 100 µg/mL lay within 80 to 100%.

For `C=C(CN(C(=O)c1c(C(F)F)nn(C)c1F)C1CC1)c1c(F)cccc1F` [Compound 25], the pest or weed control at 100 µg/mL was 80 to 100%.

Turning to `C=C(c1ccccc1C)C(C)N(C(=O)c1c(C(F)F)nn(C)c1F)C1CC1` (stereo not shown) [Compound 87], the pest or weed control at 100 µg/mL was in the range of 80 to 100%.

On to `CC(C(=C(Cl)Cl)c1cccc(F)c1)N(C(=O)c1c(C(F)F)nn(C)c1F)C1CC1` (stereo not shown) [Compound 177], for which the pest or weed control at 100 µg/mL lay in the range of 80 to 100%.

As for `Cc1ccc(C(CN(C(=O)c2c(C(F)F)nn(C)c2F)C2CC2)=C(Cl)Cl)cc1C` [Compound 151], the pest or weed control at 100 µg/mL lay within 80 to 100%.

`Cc1ccc(C(C)C)c(C(CN(C(=O)c2c(C(F)F)nn(C)c2F)C2CC2)=C(Cl)Cl)c1` [Compound 145]: the pest or weed control at 100 µg/mL is 80 to 100%.

For the compound `Cn1nc(C(F)F)c(C(=O)N(CC(=C(Cl)Cl)c2c(Br)cc(Br)cc2Br)C2CC2)c1F` [Compound 137], the pest or weed control at 100 µg/mL is 80 to 100%.

`Cn1nc(C(F)F)c(C(=O)N(CC(=C(Cl)Cl)c2cccc(Br)c2)C2CC2)c1F` [Compound 133]: the pest or weed control at 100 µg/mL was in the range of 80 to 100%.

As for `C=C(CN(C(=O)c1c(C(F)F)nn(C)c1F)C1CC1)c1cccc(S(C)(=O)=O)c1` [Compound 49], the pest or weed control at 100 µg/mL lay within 80 to 100%.

Consider `C=C(c1cc(Cl)ccc1F)C(C)N(C(=O)c1c(C(F)F)nn(C)c1F)C1CC1` (stereo not shown) [Compound 99], for which the pest or weed control at 100 µg/mL fell in the range of 80 to 100%.

In the case of `CC(C(=C(Cl)Cl)c1ccc(Br)cc1)N(C(=O)c1c(C(F)F)nn(C)c1F)C1CC1` (stereo not shown) [Compound 184], the pest or weed control at 100 µg/mL was 80 to 100%.

As for `CC(C(=C(Cl)Cl)c1c(Cl)cc(Cl)cc1Cl)N(C(=O)c1c(C(F)F)nn(C)c1F)C1CC1` (stereo not shown) [Compound 175], the pest or weed control at 100 µg/mL lay within 80 to 100%.

As for `C=C(CN(C(=O)c1c(C(F)F)nn(C)c1F)C1CC1)c1cc(C(C)C)ccc1C` [Compound 37], the pest or weed control at 100 µg/mL lay within 70 to 80%.

In the case of `C=C(CN(C(=O)c1c(C(F)F)nn(C)c1F)C1CC1)c1ccc(Cl)cc1` [Compound 17], the pest or weed control at 100 µg/mL was 80 to 100%.

For the compound `OC(Cc1ccccc1Cl)(Cn1nc[nH]c1=S)C1(Cl)CC1` (stereo not shown) [Prothioconazole, reference compound], the pest or weed control at 100 µg/mL was in the range of 70 to 80%.
